Measurements: patent publication US8288419B2, “Aminopyrazole derivatives” (Actelion Pharmaceuticals, Ltd, priority 2007, dated 2012)
pEC50: −log10 of the molar value.

Molecular target: T1, recombinant human ALX receptor (Homo sapiens, UniProt P25090)
T1 construct: expressed in transfected cells; host or cells: HEK293 (HEK293-hALXR-Gα16)
T1 sequence (P25090 1-351): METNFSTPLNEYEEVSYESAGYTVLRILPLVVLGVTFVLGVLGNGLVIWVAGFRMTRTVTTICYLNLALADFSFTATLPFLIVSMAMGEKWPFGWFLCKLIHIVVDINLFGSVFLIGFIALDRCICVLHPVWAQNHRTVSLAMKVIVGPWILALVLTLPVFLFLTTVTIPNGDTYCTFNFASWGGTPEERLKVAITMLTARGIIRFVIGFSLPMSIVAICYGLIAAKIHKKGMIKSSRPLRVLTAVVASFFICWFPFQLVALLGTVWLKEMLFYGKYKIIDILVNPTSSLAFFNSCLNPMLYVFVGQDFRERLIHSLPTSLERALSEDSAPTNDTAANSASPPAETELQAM
Test: Intracellular calcium measurements (FLIPR), ALX receptor agonistic activity
Type: cell-based
Conditions: HEK293-hALXR-Gα16 cells, Fluo-4 calcium fluorescence, normalized to 10 nM WKYMVm
Protocol: The ALX receptor agonistic activity of the compounds of formula (I) is determined in accordance with the following experimental method.
Intracellular Calcium Measurements:
Cells expressing recombinant human ALX receptor and the G-protein Gα16 (HEK293-hALXR-Gα16) were grown to 80% confluency in Growing Medium (GM). […] Stock solutions of test compounds were made up at a concentration of 10 mM in DMSO, and serially diluted in AB to concentrations required for activation dose response curves. WKYMVm (Phoenix Peptides) was used as a reference agonist. A FLIPR384 instrument (Molecular Devices) was operated according to the manufacturer's standard instructions, adding 4 μl of test compound dissolved at 10 mM in DMSO and diluted prior to the experiment in assay buffer to obtain the desired final concentration. Changes in fluorescence were monitored before and after the addition of test compounds at lex=488 nm and lem=540 nm. Emission peak values above base level after compounds addition were exported after base line subtraction. Values were normalized to high-level control (WKYMVm compound, 10 nM final concentration) after subtraction of the base line value (AB addition). The program XLlfit 3.0 (IDBS) was used to fit the data to a single site dose response curve of the equation (A+((B−A)/(1+((C/x)^D)))) and to calculate the EC50 values.

Structure (SMILES) | pEC50
CC(=O)c1cncc(Cn2cc(NC(=O)OCc3ccccc3Cl)cn2)c1 [Example 382, [1-(5-Acetyl-pyridin-3-ylmethyl)-1H-pyrazol-4-yl]-carbamic acid 2-chloro-benzyl ester] | 6.40
CC(=O)c1ccc(Cn2ccc(NC(=O)c3nc(CN)oc3-c3ccccc3)n2)o1 [Example 390, 2-Aminomethyl-5-phenyl-oxazole-4-carboxylic acid [1-(5-acetyl-furan-2-ylmethyl)-1H-pyrazol-3-yl]-amide] | 6.14
CC(=O)c1ccc(Cn2ccc(NC(=O)c3nc(C)oc3-c3cccc(OC(F)(F)F)c3)n2)s1 [Example 392, 2-Methyl-5-(3-trifluoromethoxy-phenyl)-oxazole-4-carboxylic acid [1-(5-acetyl-thiophen-2-ylmethyl)-1H-pyrazol-3-yl]-amide] | 6.63
CC(=O)c1ccc(Cn2cc(NC(=O)c3ncoc3-c3cccc(C#N)c3)cn2)s1 [Example 397, 5-(3-Cyano-phenyl)-oxazole-4-carboxylic acid [1-(5-acetyl-thiophen-2-ylmethyl)-1H-pyrazol-4-yl]-amide] | 7.64
CC(=O)c1ccc(Cn2cc(NC(=O)c3nc(C4CC4)oc3-c3ccccc3)cn2)s1 [Example 401, 2-Cyclopropyl-5-phenyl-oxazole-4-carboxylic acid [1-(5-acetyl-thiophen-2-ylmethyl)-1H-pyrazol-4-yl]-amide] | 7.31
CC(=O)c1ccc(Cn2cc(NC(=O)c3ncoc3-c3ccnc(F)c3)cn2)o1 [Example 412, 5-(2-Fluoro-pyridin-4-yl)-oxazole-4-carboxylic acid [1-(5-acetyl-furan-2-ylmethyl)-1H-pyrazol-4-yl]-amide] | 6.75
CS(=O)(=O)c1ccc(Cn2cc(NC(=O)c3ncoc3-c3ccccc3)cn2)o1 [Example 413, 5-Phenyl-oxazole-4-carboxylic acid [1-(5-methanesulfonyl-furan-2-ylmethyl)-1H-pyrazol-4-yl]-amide] | 6.31
COCc1nc(C(=O)Nc2cnn(Cc3ccc(C(C)=O)o3)c2)c(-c2ccccc2)o1 [Example 416, 2-Methoxymethyl-5-phenyl-oxazole-4-carboxylic acid [1-(5-acetyl-furan-2-ylmethyl)-1H-pyrazol-4-yl]-amide] | 7.21
CC(=O)c1ccc(Cn2cc(NC(=O)c3ncoc3-c3ccno3)cn2)o1 [Example 420, 5-Isoxazol-5-yl-oxazole-4-carboxylic acid [1-(5-acetyl-furan-2-ylmethyl)-1H-pyrazol-4-yl]-amide] | 6.41
CC(=O)c1ccc(Cn2cc(NC(=O)c3nc(C(C)C)oc3-c3ccccc3)cn2)o1 [Example 424, 2-Isopropyl-5-phenyl-oxazole-4-carboxylic acid [1-(5-acetyl-furan-2-ylmethyl)-1H-pyrazol-4-yl]-amide] | 6.94
CC(=O)c1ccc(Cn2cc(NC(=O)c3nc(Cc4ccccc4)oc3-c3ccccc3)cn2)o1 [Example 432, 2-Benzyl-5-phenyl-oxazole-4-carboxylic acid [1-(5-acetyl-furan-2-ylmethyl)-1H-pyrazol-4-yl]-amide] | 6.70
CC(=O)c1ncc(Cn2cc(NC(=O)c3ncoc3-c3ccccc3)cn2)s1 [Example 437, 5-Phenyl-oxazole-4-carboxylic acid [1-(2-acetyl-thiazol-5-ylmethyl)-1H-pyrazol-4-yl]-amide] | 7.00
CC(=O)c1ncc(Cn2ccc(NC(=O)c3ncoc3-c3ccccc3)n2)o1 [Example 440, 5-Phenyl-oxazole-4-carboxylic acid [1-(2-acetyl-oxazol-5-ylmethyl)-1H-pyrazol-3-yl]-amide] | 6.84
CC(F)(F)c1csc(Cn2ccc(NC(=O)c3ncoc3-c3ccccc3)n2)n1 [Example 461, 5-Phenyl-oxazole-4-carboxylic acid {1-[4-(1,1-difluoro-ethyl)-thiazol-2-ylmethyl]-1H-pyrazol-3-yl}-amide] | 5.96
CC(=O)CCCCn1cc(NC(=O)OCc2nc3ccccc3s2)cn1 [Example 462, [1-(5-Oxo-hexyl)-1H-pyrazol-4-yl]-carbamic acid benzothiazol-2-ylmethyl ester] | 7.37
CC(=O)c1cnc(Cn2ccc(NC(=O)c3ncoc3-c3ccccc3)n2)o1 [Example 465, 5-Phenyl-oxazole-4-carboxylic acid [1-(5-acetyl-oxazol-2-ylmethyl)-1H-pyrazol-3-yl]-amide] | 7.14
CC(=O)c1nc(Cn2cc(NC(=O)OCc3ccccc3Cl)cn2)co1 [Example 466, [1-(2-Acetyl-oxazol-4-ylmethyl)-1H-pyrazol-4-yl]-carbamic acid 2-chloro-benzyl ester] | 7.47

The remaining lines, values ahead:

pEC50 | Structure (SMILES)
7.10 | CC(=O)c1csc(Cn2cc(NC(=O)/C=C/c3ccc(C(F)(F)F)cc3)cn2)n1 [Example 389, (E)-N-[1-(4-Acetyl-thiazol-2-ylmethyl)-1H-pyrazol-4-yl]-3-(4-trifluoromethyl-phenyl)-acrylamide]
6.77 | CC(=O)c1ccc(Cn2cc(NC(=O)c3nc(C)sc3-c3cccc(C)c3)cn2)s1 [Example 395, 2-Methyl-5-m-tolyl-thiazole-4-carboxylic acid [1-(5-acetyl-thiophen-2-ylmethyl)-1H-pyrazol-4-yl]-amide]
7.24 | CC(=O)c1cc(Cn2cc(NC(=O)OCc3ccccc3Cl)cn2)ccn1 [Example 407, [1-(2-Acetyl-pyridin-4-ylmethyl)-1H-pyrazol-4-yl]-carbamic acid 2-chloro-benzyl ester]
7.08 | CC(=O)c1cc(Cn2cc(NC(=O)c3ncoc3-c3ccccc3)cn2)cs1 [Example 408, 5-Phenyl-oxazole-4-carboxylic acid [1-(5-acetyl-thiophen-3-ylmethyl)-1H-pyrazol-4-yl]-amide]
6.09 | CC(=O)c1nc(Cn2cc(NC(=O)OCc3ccccc3Cl)cn2)cs1 [Example 409, [1-(2-Acetyl-thiazol-4-ylmethyl)-1H-pyrazol-4-yl]-carbamic acid 2-chloro-benzyl ester]
7.18 | CC(=O)c1ccc(Cn2cc(NC(=O)c3ncoc3-c3cccc(C(F)(F)F)n3)cn2)o1 [Example 419, 5-(6-Trifluoromethyl-pyridin-2-yl)-oxazole-4-carboxylic acid [1-(5-acetyl-furan-2-ylmethyl)-1H-pyrazol-4-yl]-amide]
6.35 | CC(=O)c1cnc(Cn2cc(NC(=O)c3ncoc3-c3ccccc3)cn2)s1 [Example 435, 5-Phenyl-oxazole-4-carboxylic acid [1-(5-acetyl-thiazol-2-ylmethyl)-1H-pyrazol-4-yl]-amide]
7.03 | CC(=O)c1csc(Cn2cc(NC(=O)OCc3ccccc3Cl)cn2)c1 [Example 442, [1-(4-Acetyl-thiophen-2-ylmethyl)-1H-pyrazol-4-yl]-carbamic acid 2-chloro-benzyl ester]
6.74 | CC(=O)c1csc(Cn2ccc(NC(=O)c3ncoc3-c3cccc(N(C)C)c3)n2)n1 [Example 449, 5-(3-Dimethylamino-phenyl)-oxazole-4-carboxylic acid [1-(4-acetyl-thiazol-2-ylmethyl)-1H-pyrazol-3-yl]-amide]
